According to patent publication US11135200B2, “Antimicrobial drug synthesis and therapeutic compositions” (priority 2014, dated 2021):
Where two headings read alike, the source gives them in different places.

Experiments:
[1] = Pharmacokinetics after administration of rac-ornidazole in a formulation; format: in vivo, human; settings: for AUC of the component compared with rac-ornidazole / T1/2 of the component compared with rac-ornidazole: after a single administration of rac-ornidazole
prothrombin time = assay: Effect on prothrombin time; settings: relative to the Ornidazole racemic mixture

SMILES | half-life ([1]; human, in vivo, after a single administration of rac-ornidazole in a formulation, read-out: elimination half-life (T1/2)) [h] | Tmax ([1]; human, in vivo, after administration of rac-Ornidazole in a formulation) [h] | half-life ([1]; human, in vivo, after oral administration, read-out: terminal elimination half-life) [h] | Cmax ([1]; human, in vivo, after single administration of rac-ornidazole in a formulation) [ng/mL] | effect on prothrombin time (prothrombin time) | AUC of the component compared with rac-ornidazole [1] | T1/2 of the component compared with rac-ornidazole [1]
Cc1ncc([N+](=O)[O-])n1CC(O)CCl (racemic) [(rac)-ornidazole, 1-chloro-3-(2-methyl-5-nitro-1H-imidazol-1-yl)propan-2-ol, reference compound] | 14 to 18 | 2 to 4 | 14 to 18 | 9000 to 31500 | – | – | –
Cc1ncc([N+](=O)[O-])n1C[C@@H](O)CCl [(R)-ornidazole] | – | – | – | – | diminished effect on prothrombin time | similar | similar
Cc1ncc([N+](=O)[O-])n1C[C@H](O)CCl [(S)-ornidazole] | – | – | – | – | diminished effect on prothrombin time | similar | similar
